Data reported in US12350268B2, “Pharmaceutical compositions of PROTAC compounds and uses thereof” (Shenzhen Pharmacin Co., Ltd., priority 2022, dated 2025).

Tests used:
[1] = PK of ARV-471 API, oral fasted and fed and i.v., beagle dogs; format: in vivo; conditions: for AUC(0-inf) / AUC(0-t) / Cmax: geometric mean
Procedure: (§1) To investigate the oral absorption of ARV-110, two-way crossover or three-way crossover designs were performed. Six Beagle dogs were classified into two or three groups. Each group was administered capsules of different formulations comprising the API or API only at various dose to compare the API absorption in such formulations and also any difference in API absorption in fasted or fed conditions. Each dog was administered with 50 mL water in total. To measure the absolute bioavailability, i.v. injection of a solution comprising API was also performed. The API solution for i.v. injection was prepared by dissolving in DMA and Solutol mixed solution.
(§2) In fasted condition, the dogs were allowed to drink water freely and were fasted for 12 hours before administration, and then were given food 4 hours after drug administration.
(§3) In fed condition, the dogs were fed with high-fat food 30 mins before administration, according to the FDA guidance entitled “Assessing the effects of food on drug in INDs and NDAs-Clinical pharmacology considerations” published on Feb. 26, 2019.
(§4) Blood samples were taken from each group of animals at the different time points after the drug administration. Plasma concentrations were analyzed by an LC-MS/MS method. The non-compartment model of software WinNonlin was used to calculate the pharmacokinetic parameters of each dog, Cmax, AUClast and AUCinf. The geometric averages of each parameters were used for comparisons of the in vivo absorption under different doing pretreatments.
(§5) To investigate the oral absorption of ARV-471, the same study design and procedures as described in Example 3 were performed.
A three-dog, two-way crossover study was performed to evaluate oral bioavailability of ARV-471 API in beagle dogs in fasted and fed condition. A three-dog study was performed to measure the ARV-471 API bioavailability after i.v. injection in fasted condition. Each capsule was filled with 60 mg of API powder and a 6 mg/vial API solution was prepared. One capsule or one vial of API solution were administered to each dog according to the design of the two studies. The results shown in Table 5B include the geometric mean values as well as coefficient of variation (CV) of the pharmacokinetic parameters of the three dosing groups. […] The absolute bioavailability of ARV-471 API is about 7%, and high-fat food can enhance the oral absorption by 2 times.

[2] = Three-way crossover PK of ARV-471 API and ASD compositions, fed beagle dogs; format: in vivo; conditions: dog, plasma, 60 mg of API oral, fed condition, geometric mean
Procedure: as §1, §3, §4, §5
A six-dog, three-way crossover study was performed to evaluate oral bioavailability of ARV-471 API and ASD compositions in beagle dogs in fed condition. There were three study groups, ARV471 API administered in fed condition ASD composition batch no. P220215-1 administered in fed condition, and ASD composition batch no. P220215-2 administered in fed condition, each containing 2 dogs. Capsules were filled with API powder, ASD composition from batch no. P220215-1 and ASD composition from batch no. P220215-2, respectively. […]

[3] = PK of ARV-471 API high dose, fasted vs fed beagle dogs; format: in vivo; conditions: for AUC(0-inf) / AUC(0-t) / Cmax: beagle, dog, plasma, po, 200 mg, API capsule 200 mg oral, geometric mean
Procedure: as §1, §2, §3, §4, §5
A six-dog, two-way crossover study was performed to evaluate oral bioavailability of ARV-471 API dose escalation in beagle dogs in fasted and fed condition. There were two study groups, ARV-471 API orally administered in fasted condition and in fed condition, 200 mg of ARV-471 API was filled in each capsule. The capsules were given at the dose of 200 mg API per dog for oral administration for each group. The results shown in Table 5F include the geometric mean values as well as coefficient of variation (CV) of the pharmacokinetic parameters of two dosing groups.

[4] = cited from earlier work
[5] = PK of ARV-110 API, i.v. injection vs oral capsule, fasted beagle dogs (absolute oral bioavailability); format: in vivo; conditions: for AUC(0-inf) / AUC(0-t) / Cmax: fasted condition, geometric mean
Procedure: The XRPD testing was performed on both API only (ARV-110) and the ASD formulation Batch No. P210803 using D2-Phasher (Bruker) equipment, and with the following parameters: generator, 30.0 kV/10.0 mA; detector, Lynxeye; wavelength, Cu Kal(1.54060); scan mode, continuous PSD fast; scan range, 4-40 degree; step Size, 0.01 degree; time/step, 0.5 s; sample stage rotation, 15 r/min. […] P210803 were in amorphous state. ARV-110 is still under developing in clinical stage. To measure the absolute oral bioavailability, the capsule filled with ARV-110 API was prepared only for oral administration in fasted condition. API was dissolved in DMA and Solutol mixed solution for injection. Three beagle dogs were tested in two dosing groups, one group was for oral, 50 mg dose per dog, and the other group for injection, 5 mg dose per dog. During the study, the dogs were allowed to drink water freely and were fasted for 12 hours before administration, all dogs were given food 4 hours after drug administration. Each dog was administered together with 50 ml water.
as §4, with “the following” for “the different”, “time points: 0 h (before test drug administration), and 0.25, 0.5, 1, 1.5, 2, 4, 6, 8, 10, 24 h” for “time points”, “administration. ARV-110 plasma” for “administration. Plasma”, “Cmax, AUClast,” for “Cmax, AUClast”, “different dosing” for “different doing”
The results shown in Table 3B include the geometric mean values as well as coefficient of variation (CV) of the pharmacokinetic parameters of the two dosing groups. […] The absolute bioavailability of ARV-110 is about 6.0%.

[6] = PK of ARV-110 API capsules, fasted vs high-fat fed beagle dogs; format: in vivo; conditions: API capsules 45 mg oral; for AUC(0-inf) / AUC(0-t) / Cmax: beagle, dog, in vivo, po, 45 mg, geometric mean
Procedure: Then, the capsule filled with ARV-110 API was prepared to compare the absorption advantage of our ASD formulation. Each capsule contained 45 mg ARV-110 API. The capsules were tested orally in three beagle dogs under two different dosing pretreatments (with or without high-fat food). During the study, the dogs were allowed to drink water freely and were fasted for 12 hours before administration, for the dosing pretreatment of the fasted condition, all dogs were given food 4 hours after drug administration. Each dog was administered together with 50 ml water. For the dosing pretreatment of the fed condition, all dogs were given a high-fat food 30 minutes prior to dosing.
as §4, with “the following” for “the different”, “time points: 0 h (before test drug administration), and 0.5, 1, 1.5, 2, 3, 4, 5, 6, 8, 10, 12, 24, 48, 72 h” for “time points”, “administration. ARV-110 plasma” for “administration. Plasma”
The results shown in Table 3C include the geometric mean values as well as coefficient of variation (CV) of the pharmacokinetic parameters of two dosing groups. […] The high-fat fed condition can enhance the oral absorption by about 6-folds compared to fasted condition.

[7] = Three-way crossover PK of ARV-110 API and ASD compositions, fed beagle dogs; conditions: in vivo, 50 mg API per dog oral, fed condition, geometric mean
Procedure: The capsules were given at the dose of 50 mg API per dog for oral administration for each group in fed condition.

[8] = Table 1, footnote 1: Heimbach et al., J Pharm Sci 108 (2019); cited from earlier work
[9] = beagle, dog, plasma, iv, 6 mg, i.v. 6 mg, fasted condition
[10] = beagle, dog, plasma, po, 60 mg, API capsule oral 60 mg, fasted condition
[11] = beagle, dog, plasma, po, 60 mg, API capsule oral 60 mg, fed condition
[12] = beagle, in vivo, iv, I.V. injection 5 mg per dog
[13] = beagle, in vivo, API oral capsule 50 mg per dog

SMILES: O=C1CC[C@H](N2Cc3cc(N4CCN(CC5CCN(c6ccc([C@@H]7c8ccc(O)cc8CC[C@@H]7c7ccccc7)cc6)CC5)CC4)ccc3C2=O)C(=O)N1 [ARV-471, (3S)-3-[5-[4-[[1-[4-[(1R,2S)-6-hydroxy-2-phenyl-tetralin-1-yl]phenyl]-4-piperidyl]methyl]piperazin-1-yl]-1-oxo-isoindolin-2-yl]piperidine-2,6-dione]
- enhancement of oral absorption by high-fat food ([1]; API oral 60 mg, fed vs fasted): 2 times
- oral absorption (in words) ([1]; amorphous API oral 60 mg, fasted dogs): poor absorption in fasted condition
- AUC(0-inf) [1, 9]: 3220 ng·h/mL
- AUC(0-t) [1, 9]: 3120 ng·h/mL
- Cmax [1, 9]: 609 ng/mL
- AUC(0-inf) [1, 10]: 2480 ng·h/mL
- AUC(0-t) [1, 10]: 2360 ng·h/mL
- Cmax [1, 10]: 200 ng/mL
- AUC(0-inf) [1, 11]: 5230 ng·h/mL
- AUC(0-t) [1, 11]: 5020 ng·h/mL
- Cmax [1, 11]: 428 ng/mL
- bioavailability ([1]; beagle, dog, plasma, oral 60 mg vs i.v. 6 mg, fasted dogs, read-out: absolute bioavailability): ~7%
- AUC(0-inf) [2]: 5840 ng·h/mL
- AUC(0-t) [2]: 5600 ng·h/mL
- Cmax [2]: 381 ng/mL
- enhancement of oral absorption by high-fat food vs fasted condition ([3]; API 200 mg oral): 2 times
- AUC(0-inf) ([3]; fasted condition): 7650 ng·h/mL
- AUC(0-t) ([3]; fasted condition): 7140 ng·h/mL
- Cmax ([3]; fasted condition): 415 ng/mL
- AUC(0-inf) ([3]; fed condition): 15600 ng·h/mL
- AUC(0-t) ([3]; fed condition): 14700 ng·h/mL
- Cmax ([3]; fed condition): 860 ng/mL
- dissolution in the aqueous solution (in words) [4]: very hard to dissolve in the aqueous solution

SMILES: N#Cc1ccc(O[C@H]2CC[C@H](NC(=O)c3ccc(N4CCC(CN5CCN(c6cc7c(cc6F)C(=O)N(C6CCC(=O)NC6=O)C7=O)CC5)CC4)nn3)CC2)cc1Cl (some centres unmarked) [ARV-110, N-((1r,4r)-4-(3-chloro-4-cyanophenoxy)cyclohexyl)-6-(4-((4-(2-(2,6-dioxopiperidin-3-yl)-6-fluoro-1,3-dioxoisoindolin-S-yl)piperazin-1-yl)methyl)piperidin-1-yl)pyridazine-3-carboxamide]
- oral absorption (in words) ([5]; amorphous API, oral 50 mg, fasted dogs): poor absorption in fasted condition
- bioavailability ([5]; beagle, dog, in vivo, 50 mg per dog, oral 50 mg vs i.v. 5 mg, fasted dogs): ~6%
- AUC(0-inf) [5, 12]: 866 ng·h/mL
- AUC(0-t) [5, 12]: 588 ng·h/mL
- Cmax [5, 12]: 575 ng/mL
- AUC(0-inf) [5, 13]: 279 ng·h/mL
- AUC(0-t) [5, 13]: 162 ng·h/mL
- Cmax [5, 13]: 10.7 ng/mL
- enhancement of oral absorption, high-fat fed vs fasted condition [6]: about 6 folds
- food effect (in words) ([6]; fed vs fasted): significant food effect
- AUC(0-inf) ([6]; fasted condition): 278 ng·h/mL
- AUC(0-t) ([6]; fasted condition): 218 ng·h/mL
- Cmax ([6]; fasted condition): 7.6 ng/mL
- AUC(0-inf) ([6]; fed condition (high-fat food)): 1550 ng·h/mL
- AUC(0-t) ([6]; fed condition (high-fat food)): 1410 ng·h/mL
- Cmax ([6]; fed condition (high-fat food)): 56.5 ng/mL
- AUC(0-inf) [7]: 3000 ng·h/mL
- AUC(0-t) [7]: 2570 ng·h/mL
- Cmax [7]: 80.3 ng/mL
- dissolution in the aqueous solution (in words) [4]: very hard to dissolve in the aqueous solution
- Calculated log P [8]: 5.8^1
